Reference: US12391667B2, “N-methyl, n-(6-(methoxy)pyridazin-3-yl) amine derivatives as Autotaxin (ATX) modulators for the treatment of inflammatory airway or fibrotic diseases” (Boehringer Ingelheim International GmbH, priority 2019, dated 2025)

Assays:
LPA levels = details: as disclosed in literature; cited from earlier work
Human ATX = Human ATX (Homo sapiens (Human), UniProt Q13822); assay: Assay A: Biochemical ATX Assay; details: 5 nM recombinant ATX, 18:1 LPC substrate, 2 h at room temperature, formation of 18:1 LPA
Procedure: 5 nM recombinant ATX (Cayman Chemicals) was supplemented to 50 mM Tris buffer (pH 8.0) containing 3 mM KCl, 1 mM CaCl2), 1 mM MgCl2 0.14 mM NaCl, and 0.1% bovine serum albumin. Test compounds were dissolved in DMSO and tested in the range of 0.1 nM to 10 μM. The enzymatic reaction (22.5 μL) was started by addition of 2.5 μL 10 μM 18:1 LPC (Avanti Lipids, Alabaster, AL, USA). After 2-h incubation at room temperature, the reaction was stopped by addition of 20 μL water containing 500 nM 20:4 LPA as internal standard and 100 μL 1-butanol for extracting LPA. Subsequently, the plates were centrifuged at 4000 rpm, 4° C., for 2 min. The resultant upper butanol phase was directly used for injection at a RapidFire system (Agilent).
The RapidFire autosampler was coupled to a binary pump (Agilent 1290) and a Triple Quad 6500 (ABSciex, Toronto, Canada). […] 1 The MS was operated in negative mode with a source temperature of 550° C., curtain gas=35, gas 1=65, and gas 2=80. The following transitions and MS parameters (DP: declustering potential and CE: collision energy) for the respective LPAs were determined: 18:1 LPA at 435.2/152.8, DP=−40, CE=−28 and 20:4 LPA at 457.2/152.8, DP=−100, CE=−27).
The formation of 18:1 LPA was monitored and evaluated as ratio to 20:4 LPA.

[1] = tested on: plasma LPA (ATX inhibition); assay: Assay C: In vivo plasma LPA reduction after oral dosing; details: rats, 5 mg/kg, 8 hours post application, sum of LPA vs baseline
Procedure: The test substance was solubilized in 0.5% natrosol supplemented with 0.015% Tween 80 for oral application to rats at a dose of 5 mg/kg. Blood samples were collected before compound administration and 8 hours post application on ice using EDTA as coagulation agent. Subsequently, plasma was prepared by centrifugation and stored until analysis at −20° C.
LPAs from plasma samples were extracted by using the procedure described by Scherer et al. (Clinical chemistry 2009, 55, 1218-22). 35 μL of heparinized plasma was mixed with 200 μL 40 mM disodium hydrogen phosphate buffer containing 30 mM citric acid (pH 4) and 1 μM 17:0 LPA (internal standard). Subsequently, 500 μL butanol was added and shaken vigorously for 10 min. Samples were centrifuged afterwards at 4000 rpm, 4° C., for 10 min. 500 μL of the organic upper phase was transferred to a fresh 96-deep-well plate and evaporated with a gentle nitrogen flow of 15 psi for 45 min. The resultant residual was dissolved in 100 μL ethanol prior to LC-MS analysis.
LC-MS Method for the Analytic of In Vivo Samples
A Triple Quad 6500 (ABSciex, Toronto, Canada) was equipped with an Agilent 1290 LC system (Agilent, Santa Clara, CA) a CTC autosampler and an Atlantis 50×2.1-mm, 3-μm HILIC LC column (Waters, Elstree, UK). Eluent A contained 0.2% formic acid and 50 mM ammonium formate in water, whereas eluent B consisted of 0.2% formic acid in acetonitrile. […] At 1.8 min, solvent B was set back to 95% and stayed constant for 0.7 min for re-equilibration of the column. The following LPA species were monitored (DP: declustering potential and CE: collision energy): 16:0 LPA at 409.2/152.8, DP=−150, CE=−28; 18:0 LPA at 437.3/152.8, DP=−60, CE=−28; 18:1 LPA at 435.2/152.8, DP=−40, CE=−28; 18:2 LPA at 433.2/152.8, DP=−150, CE=−28; 20:4 LPA at 457.2/152.8, DP=−100, CE=−29 and 17:0 LPA at 423.5/152.8, DP=−100, CE=−36. LPA depletion in percent was calculated based on the baseline LPA levels before test compound application. The sum of LPA refers to the species 16:0; 18:0; 18:1; 18:2 and 20:4

ATX in human whole blood = ATX in human whole blood (Homo sapiens (Human), UniProt Q13822); assay: Assay B: Whole-Blood ATX assay; format: biochemical; details: 1 h at 37° C., formation of 18:2 LPA
Procedure: 45 μL human whole-blood was supplemented with 5 μL of the test compound, dissolved in phosphate-buffered saline (concentration range 0.12 nM-100 μM). This mixture was incubated for 1 h at 37° C. and stopped by addition of 100 μL 40 mM disodium hydrogen phosphate buffer containing 30 mM citric acid (pH 4) and 1 μM 17:0 LPA (internal standard). LPA was extracted by addition of 500 μL 1-butanol, followed by 10-min centrifugation at 4000 rpm, 4° C. From the resultant organic supernatant, a 200 μL aliquot was transferred into a 96-deep-well plate and transferred to the RapidFire-based MS/MS measurement.
The RapidFire autosampler was coupled to a binary pump (Agilent 1290) and a Triple Quad 6500 (ABSciex, Toronto, Canada). This system was equipped with a 10-μL loop, 5-μL Waters Atlantis HILIC cartridge (Waters, Elstree, UK), 90% acetonitrile containing 10 mM ammonium acetate as eluent A and 40% acetonitrile containing 10 mM ammoniumacetate as eluent B. For details see (Bretschneider et al., SLAS Discovery, 2017, 22, 425-432). The MS was operated in negative mode with a source temperature of 550° C., curtain gas=35, gas 1=65, and gas 2=80. The following transitions and MS parameters (DP: declustering potential and CE: collision energy) for the respective LPAs were determined: 18:2 LPA at 433.2/152.8, DP=−150, CE=−27 and 17:0 LPA at 423.5/152.8, DP=−100.
The formation of 18:2 LPA was monitored and evaluated as ratio to 17:0 LPA.

Structure (SMILES) | reduction of LPA levels in vivo (LPA levels) | IC50 (Human ATX) | LPA reduction at 8 h [1] | IC50 (ATX in human whole blood)
O=C(NC[C@@H]1[C@H]2CN(C(=O)OCc3cc(C(F)(F)F)cc(C(F)(F)F)c3)C[C@@H]12)c1ccc2[nH]nnc2c1 | significantly reduces LPA levels in vivo |  |  | 
CC(=O)N1CCN(c2ccc(C3(Nc4ccc(OCc5ccc(C(F)(F)F)nc5)nn4)CC3)cc2)CC1 [Example 1.1, 1-[4-(4-{1-[(6-{[6-(trifluoromethyl)pyridin-3-yl]methoxy}pyridazin-3-yl)amino]cyclopropyl}phenyl)piperazin-1-yl]ethan-1-one] |  | 2.5 nM | 97.0% | 3.5 nM
CC(=O)N1CCN(c2ccc([C@@H](C)Nc3ccc(OCc4ccc(C(F)(F)F)nc4)nn3)cc2)CC1 [Example 1.2] |  | 3.4 nM | 95.9% | 1.8 nM
CC(=O)N1CCN(c2ccc(C(C)Nc3ccc(OCc4ccc(C(F)(F)F)nc4)nn3)cc2)CC1 (centres unmarked) [Example 1.3] |  | 2.2 nM |  | 2 nM
CC(=O)N(C)C1CCN(c2ccc(C3(Nc4ccc(OCc5ccc(C(F)F)nc5)nn4)CC3)cc2)CC1 [Example 1.4] |  | 5.8 nM | 98.0% | 4.3 nM
CC(=O)N1CCN(c2ccc(C3(Nc4ccc(OCc5ccc(C(F)F)nc5)nn4)CC3)cc2)CC1 [Example 1.5] |  | 4.2 nM |  | 4.3 nM
CC(=O)N1CCN(c2ccc([C@H](C)Nc3ccc(OCc4ccc(C(F)(F)F)nc4)nn3)cc2)CC1 [Example 1.6] |  | 2.6 nM |  | 7.8 nM
CC(=O)N(C)C1CCN(c2ccc(C3(Nc4ccc(OCc5ccc(C(F)F)nc5)nn4)CC3)cc2)C1 (centres unmarked) [Example 1.7] |  | 6.7 nM |  | 7 nM
CC(=O)N1CCN(c2ccc([C@@H](CO)Nc3ccc(OCc4ccc(C(F)F)nc4)nn3)cc2)CC1 [Example 1.8] |  | 4.2 nM |  | 1.3 nM
CC(=O)N1CCN(c2ccc([C@@H](CO)Nc3ccc(OCc4ccc(C(F)(F)F)nc4)nn3)cc2)CC1 [Example 1.9] |  | 5.3 nM |  | 5 nM
CC(=O)N1CCN(c2ccc(C3(Nc4ccc(OCc5ccc(C(F)(F)F)nc5)nn4)CC3)cc2F)CC1 [Example 1.10] |  | 2.4 nM |  | 3.7 nM
CC(=O)N1CCN(c2ccc(C3(Nc4ccc(OCc5ccc(C(F)(F)F)nc5)nn4)CC3)cn2)CC1 [Example 1.11] |  | 4.4 nM | 96.3% | 6.9 nM
CC(=O)N1CCN(c2ccc(C3(Nc4ccc(OCc5ccc(C(F)(F)F)nc5)nn4)CC3)c(F)c2)CC1 [Example 1.12] |  | 4.8 nM |  | 7.7 nM
CC(=O)N1CCN(c2ccc(C3(Nc4ccc(OCc5ccc(C(F)(F)F)nc5)nn4)CC3)cc2C)CC1 [Example 1.13] |  | 3.4 nM |  | 7.1 nM
CCc1nc2c(C)cc(N3CCN(CC(=O)N4CC(O)C4)CC3)cn2c1N(C)c1nc(-c2ccc(F)cc2)c(C#N)s1 [Example 2 in WO2014/139882, reference compound] |  |  | 58.1% | 
